# Results reported in ChEMBL document CHEMBL5729324, “Aromatic heterocyclic substituted olefin compound, preparation method for same, pharmaceutical composition of same, and applications thereof” (2022).
# pIC50: −log10 of the molar value.
# Target: T1, TGF-beta receptor type-1 (Homo sapiens, UniProt P36897)
# T1 sequence (P36897 whole entry): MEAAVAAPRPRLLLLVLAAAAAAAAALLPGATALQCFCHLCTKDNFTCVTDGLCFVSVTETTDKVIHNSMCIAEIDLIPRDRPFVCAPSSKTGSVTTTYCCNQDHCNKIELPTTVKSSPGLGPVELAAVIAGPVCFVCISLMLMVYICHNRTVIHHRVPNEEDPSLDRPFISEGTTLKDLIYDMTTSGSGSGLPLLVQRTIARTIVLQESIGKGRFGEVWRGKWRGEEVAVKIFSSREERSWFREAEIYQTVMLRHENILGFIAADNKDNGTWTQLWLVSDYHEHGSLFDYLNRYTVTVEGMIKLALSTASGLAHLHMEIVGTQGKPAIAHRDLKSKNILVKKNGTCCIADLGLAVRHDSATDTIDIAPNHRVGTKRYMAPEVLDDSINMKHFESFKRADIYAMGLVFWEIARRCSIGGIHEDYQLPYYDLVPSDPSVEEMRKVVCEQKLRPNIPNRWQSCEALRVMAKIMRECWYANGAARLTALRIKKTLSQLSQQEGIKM
# Experiment: Enzyme Activity Inhibition: 1. Preparation of a 1× kinase buffer: 40 mM Tris (pH 7.5), 20 mM MgCl2, 0.10% BSA, 1 mM DTT.2. Compound preparation: The final detection concentration of the compound was 10 μM, which was prepared to a 100-fold concentration, i.e., 1 mM. 100 μL of the 100-fold compound was added in the second well of the 384-well plate, and 60 μL of 100% DMSO was added to the other wells. […] 50 nL of the compound was transferred to the reaction plate with echo.3. Kinase reaction: The kinase was added to a 1× kinase buffer to form a 2× enzyme solution. […] The polypeptide TGFbR1 (purchased from Signal Chem, catalog number T36-58) and ATP were added to a 1× kinase buffer to form a 2× substrate solution. The final concentration of the substrate solution was peptide TGFbR1 0.1 mg/mL, ATP 7 μM. 2.5 μL of the 2× enzyme solution was added to the 384-well reaction plate (there was already 50 nL of 100% DMSO dissolved compound), and a 1× kinase buffer was added to a negative control well. The reaction solution was incubated at room temperature for 10 minutes. 2.5 μL of 2× substrate solution was added to the 384-well reaction plate. The 384-well plate was covered and incubated at 30° C. for 1 hour. ADP-Glo reagent (purchased from Promege, catalog number v9102) was equilibrated to room temperature. 5 μL of ADP-Glo reagent was transferred to the reaction well of the 384-well plate to stop the reaction.4. Detection of reaction results: 10 μL of kinase detection reagent was transferred to each well, shaken for 1 minute, and let stand at room temperature for 30 minutes. The sample luminescence value was read at Synegy.
row,SMILES,pIC50
1,Cc1cccc(/C=C(/C(N)=O)c2ccc3ncc(C(N)=O)n3c2)n1,6.48
2,Cc1cccc(/C=C\c2ccc3ncc(C#N)n3c2)n1,7.60
3,Cc1ccc(F)c(/C=C\c2ccc3ncc(C(N)=O)n3c2)n1,8.07
4,CCOC(=O)c1cnc2ccc(/C=C\c3cccc(OC)n3)cn12,7.25
5,Cc1cccc(/C=C\c2ccc3ncc(-c4nnn[nH]4)n3c2)n1,7.68
6,Cc1cccc(/C=C/c2ccc3ncc(C(N)=O)n3c2)n1,6.43
7,COc1cccc(/C=C\c2ccc3ncc(C(N)=O)n3c2)n1,7.82
8,Cc1csc(/C=C\c2ccc3ncc(C(N)=O)n3c2)n1,7.48
9,Cc1cccc(/C=C(/C(=O)N2CCCCC2)c2ccc3ncc(C#N)n3c2)n1,5.31
10,CNC(=O)/C(=C/c1cccc(C)n1)c1ccc2ncc(C(N)=O)n2c1,6.68
11,Cc1cccc(/C=C(/C(=O)N2CCCCC2)c2ccc3ncc(C(N)=O)n3c2)n1,7.24
12,COC(=O)/C(=C/c1cccc(C)n1)c1ccc2ncc(C(N)=O)n2c1,8.13
13,Cc1cccc(/C=C\c2ccc3ncc(C(=O)NCCN4CCOCC4)n3c2)n1,7.36
